Measurements published in patent publication US9763939B2, “Compositions and methods for treating mitochondrial diseases” (BIOVISTA, INC., priority 2012, dated 2017).

Key:
in vivo [1] = conditions: mouse
cholinergic system = test: Effect on the cholinergic system
in vivo [2] = conditions: rat
[3] = Pharmacokinetics in the dog; format: in vivo
[4] = test system: human primary fibroblasts from patients suffering from LHON; test: cells
Description: EXAMPLE. […] Briefly, primary human fibroblasts from patients suffering from Friedreich's ataxia and LHON are lesioned with 100 μM BSO (LHON fibroblasts) or 250 μM BSO (FRDA fibroblasts) respectively, for 48 hours. Apoptosis, toxicity and viability rate of cells are determined using the ApoTox-Glo-Kit (Promega): the reagent for assessing viability and toxicity is applied 1:5 into treatment medium and incubated for 30 min at 37° C. Next, fluorescence is measured at the following wavelength sets: 400EX/505EM (viability) and 485EX/520EM (toxicity). In case of apoptosis measurement the caspase reagent was added 1:2 and incubated at RT for 30 min, the caspase activity (apoptosis) was measured as luminescence
EXAMPLE. Evaluation of Tetracyclic Pyrazinoindoles, and Pharmaceutically Acceptable Salts Thereof. One or more tetracyclic pyrazinoindoles are applied 2 and 24 hours before BSO treatment and are present throughout the assay. An optional reference compound, such as idebenone may be included for comparison. BSO treated cells without any treatment (BSO group) as well as cells neither treated with BSO nor with any treatment (Vehicle Control (VC) group) serve as controls. Cells are assessed for apoptosis, toxicity and viability immediately after BSO lesion by means of the ApoTox-Glo-assay Kit (Promega). Three independent experiments in four technical replicates are performed for all groups as depicted in Table 1 (different tetracyclic pyrazinoindoles are labeled as Test Items (T.I.1-T.I.2) and an optional positive control Reference Item 1 (R.I.1)):
BSO generally reduces a cell's protection against oxidative damage. Cells harvested from FRDA and LHON patients generate higher levels of ROS than normal cells. Apoptosis, toxicity and viability rate of cells are determined using the ApoTox-Glo-Kit (Promega): the reagent for assessing viability and toxicity is applied 1:5 into treatment medium and incubated for 30 min at 37° C. Next, fluorescence is measured at the following wavelength sets: 400EX/505EM (viability) and 485EX/520EM (toxicity). In case of apoptosis measurement the caspase reagent is added 1:2 and incubated at RT for 30 min, the caspase activity (apoptosis) was measured as luminescence
Descriptive statistical analysis was performed. Data are presented as mean±standard error of mean (SEM) in percent of vehicle control, MPP+ lesion and BSO lesion, respectively. Differences between compound-treated groups and controls (vehicle, BSO) are evaluated by means of One-Way ANOVA.
EXAMPLE. […] One vial is thawed and administered 2 and 24 hours before BSO treatment, at concentrations 0.6 μM, 1.8 μM, 5.5 μM and 16 μM. Apoptosis, toxicity and viability rate of cells are determined using the ApoTox-Glo-Kit (Promega). Human primary fibroblasts from patients suffering from LHON are used. Three independent experiments in four technical replicates are performed for all groups. […] Statistical significance is indicated by NS=not significant p>0.1, *=p<0.05, **=p<0.01, ***=p<0.001 as determined by One-Way ANOVA. Data are shown as group mean+/−SEM.
EXAMPLE. Tetrindole is diluted in DMSO. One vial is thawed and administered 2 and 24 hours before BSO treatment, at concentrations 0.2 μM, 0.6 μM, 1.8 μM and 5.5 μM. Apoptosis, toxicity and viability rate of cells are determined using the ApoTox-Glo-Kit (Promega). Human primary fibroblasts from patients suffering from LHON are used. Three independent experiments in four technical replicates are performed for all groups. […] Statistical significance is indicated by NS=not significant p>0.1, *=p<0.05, **=p<0.01, ***=p<0.001 as determined by One-Way ANOVA. Data are shown as group mean+/−SEM.

[5] = test system: YG8R FRDA mouse fibroblasts; test: FAC/BSO oxidative stress insult, cell viability (Presto Blue), YG8R fibroblasts; format: cell-based; conditions: FAC and 1 mM BSO 48 h
Description: EXAMPLE. Primary fibroblast and neuronal stem cell (NSC) cultures from the YG8R FRDA mouse model. The cell cultures are used as a rapid means to test the effectiveness of potential therapies before proceeding to longer-term FRDA mouse model investigations. A parallel assay using YG22R NSCs may be used.
YG8R fibroblasts and NSCs are treated with increasing concentrations of test compound, and a vehicle-only negative control. Optionally, YG8R fibroblasts and NSCs are treated with a positive control compound, such as 1 μM idebenone. Two hours after the initial treatment, cells are lesioned with […] FAC and 1 mM BSO for 48 hours. Cell viability is then determined using Presto Blue Cell Viability Reagent (Life Technologies) for 24 hours and subsequent colorimetric spectrophotometry. […] Similarly, 1.8 μM tetrindole restored the vehicle-treated FAC/BSO cell viability value of 26% to a value of 53% (p<0.001), relative to the vehicle treated non-insulted cell value as 100%.

SMILES: Cc1ccc2c(c1)c1c3n2CCNC3CCC1 (centres unmarked) [pirlindole, 2,3,3a,4,5,6-hexahydro-8-methyl-1H-pyrazino[3,2,1-j,k]carbazole]
- LD50 (in vivo [1]; iv): 70 to 80 mg/kg
- LD50 (in vivo [1]; po): 400 to 1000 mg/kg
- effect on the cholinergic system (cholinergic system): no effect
- LD50 (in vivo [2]; iv): ~80 mg/kg
- LD50 (in vivo [2]; po): 2000 to 5000 mg/kg
- first phase of elimination ([3]; dog, approximately): approximately 1.5 h
- second phase of elimination ([3]; dog, approximately): ~11 h
- third phase of elimination ([3]; dog, approximately): ~185 h
- Tmax ([3]; in vivo, dog, oral, approximately): 1 to 2 h
- blood levels versus dose ([3]; male and female dogs, repeated administration of three dose levels p.o. for one year): strictly dose-dependent
- statistically significant overall cytotoxicity over BSO control [4]: not observed at any dose
- apoptosis (caspase activity) ([4]; 16 μM, only significant after 24 h): reduced
- apoptosis compared to the BSO group ([4]; 5.5 dose): Statistically significant inferior apoptosis
- concentrations with protective effect or protective trend on cell viability ([4]; BSO lesion, pirlindole at both time points, tetrindole dose dependent protective trend): 16 µM
- viability at 16 µM ([4]; Homo sapiens, Fibroblast, 48 h, read-out: protective effect in relative cell viability): 122%
- protection against the oxidative stress insult [5]: significantly protect
- viability at 16 µM ([5]; Mus musculus, Fibroblast, 16 μM, vehicle-treated FAC/BSO value 26%, relative to vehicle treated non-insulted cells as 100%, p<0.001): 67%
